Legend:
Assay type in all cases: cell-based
HBeAg = assay: PHH HBV natural infection assay, HBeAg (alphalisa); conditions: Hepatitis B virus, Hepatocyte, read-out: HBeAg IC50
Procedure: (§1) Detailed procedures regarding primary human hepatocyte (PHH) HBV natural infection assay are described as below. One tube of frozen PHH (10 million cells) is thawed in 37° C. water bath and then transferred to 20 mL of PHH thawing medium (Sigma, InVitroGRO HT Medium, Cat. S03319) with gently mixing. The cells were then centrifuged at […] for 5 min, the supernatant was discarded and the tube was refilled with 25 mL of PHH plating medium (Sigma, InVitroGRO CP Medium, Cat. S03317). The tube was shaken very gently to re-suspend all cells, and then 50 μL of cells were transferred to each well 384-well collagen I coated plate with appropriate liquid handling equipment, e.g. Integra VIAFLO384 or Agilent Bravo. The cells were then cultured for 24 hours in a cell incubator. For HBV infection, after PHH attachment on the culture plate, the plating medium was removed and replenished with PHH culture medium containing HBV virus. The PHH culture medium was prepared with Dulbecco's Modified Eagle Medium (DMEM)/F12 (1:1 in volume ratio) containing 10% fetal bovine serum (Gibco, Cat. 10099141), 5 ng/mL human epidermal growth factor (Gibco, Cat. PHG0311L), 20 ng/mL dexamethasone (Sigma, Cat. D4902-100 mg), 250 ng/mL human recombinant insulin (Gibco, Cat. 41400045) and 100 U/mL penicillin. HBV virus at 200 genome equivalent (GE) per cell with 4% PEG8000 (Sigma, Cat. P1458) containing culture medium were added to the PHH culture medium for infection. The cells were then cultured for 24 hours in cell incubator. Then the cell culture supernatant was removed. The HBV-infected PHH were cultured with sandwich culture method with MEI culture medium containing 1% DMSO and 0.25 mg/mL matrix gel for 72 hours. The supernatant was then refreshed with PHH culture medium containing different concentrations of testing compounds for two times with 72-hour interval. At the end of treatment, the supernatant was collected for viral markers measurements, including HBsAg, HBeAg, HBV DNA and cytotoxicity. HBsAg and HBeAg were detected using alphalisa method using their specific antibodies. For HBV DNA detection, HBV DNA Quantitative Fluorescence Diagnostic Kit (Sansure Biotech Inc.) was used following the manufacture's protocol. Cytotoxicity was determined using Cell Counting Kit-8 (CCK8, Dojindo Molecular Technologies, Inc.).
(§2) The compounds of the present invention were tested for their capacity to inhibit HBsAg and HBeAg as described herein.

HBsAg = assay: PHH HBV natural infection assay, HBsAg (alphalisa); conditions: Hepatitis B virus, Hepatocyte, read-out: HBsAg IC50
Procedure: as §1, §2

[1] = Cytotoxicity in PHH natural infection assay (Cell Counting Kit-8); conditions: HBV-infected primary human hepatocytes, CCK8
Procedure: as §1

NS(=O)(=O)c1ccc(C(=O)NC2CCC3(CC2)CCN(c2nc4cc(Cl)ccc4o2)CC3)o1 [Example 108, N-[3-(5-chloro-1,3-benzoxazol-2-yl)-3-azaspiro[5.5]undecan-9-yl]-5-sulfamoyl-furan-2-carboxamide]
IC50 (HBeAg): 4.18 µM | IC50 (HBsAg): 6.69 µM | CC50 at 144 h [1]: > 10 µM

O=C(NC1CC2(C1)CN(c1nc3cc(Cl)ccc3o1)C2)c1ccc(S(=O)(=O)CC2CC2)o1 [Example 65, N-[2-(5-chloro-1,3-benzoxazol-2-yl)-2-azaspiro[3.3]heptan-6-yl]-5-(cyclopropylmethylsulfonyl)furan-2-carboxamide]
IC50 (HBeAg): 1.07 µM | IC50 (HBsAg): 0.806 µM | CC50 at 144 h [1]: 92.3 µM

O=C(CC1CCOC1)NC1CCC2(CC1)CCN(c1nc3cc(Cl)ccc3o1)CC2 (stereo not drawn) [Example 84, N-[3-(5-chloro-1,3-benzoxazol-2-yl)-3-azaspiro[5.5]undecan-9-yl]-2-tetrahydrofuran-3-yl-acetamide]
IC50 (HBeAg): 1.37 µM | IC50 (HBsAg): 2.02 µM | CC50 at 144 h [1]: 58.6 µM

Cc1ccc(S(=O)(=O)N2CCC(CC(=O)NCC3CCN(c4nc5cc(Cl)ccc5o4)CC3)C2)cc1 (stereo not drawn) [Example 18, N-[[1-(5-chloro-1,3-benzoxazol-2-yl)-4-piperidyl]methyl]-2-[1-(p-tolylsulfonyl)pyrrolidin-3-yl]acetamide]
IC50 (HBeAg): 3.78 µM | IC50 (HBsAg): 3.9 µM | CC50 at 144 h [1]: > 10 µM

CN(C)C(=O)NC1CC2(C1)CN(c1nc3cc(Cl)ccc3o1)C2 [Example 23, 3-[2-(5-Chloro-1,3-benzoxazol-2-yl)-2-azaspiro[3.3]heptan-6-yl]-1,1-dimethyl-urea]
IC50 (HBeAg): 6.62 µM | IC50 (HBsAg): 7.63 µM | CC50 at 144 h [1]: > 100 µM

CS(=O)(=O)c1ccc(C(=O)NC2CC3(C2)CN(c2nc4cc(Cl)cnc4o2)C3)o1 [Example 48, N-[2-(6-chlorooxazolo[5,4-b]pyridin-2-yl)-2-azaspiro[3.3]heptan-6-yl]-5-methylsulfonyl-furan-2-carboxamide]
IC50 (HBeAg): 2.95 µM | IC50 (HBsAg): 3.8 µM | CC50 at 144 h [1]: > 100 µM

COc1ccc(C(=O)NC2CC3(C2)CN(c2nc4cc(Cl)ccc4o2)C3)cn1 [Example 46, N-[2-(5-chloro-1,3-benzoxazol-2-yl)-2-azaspiro[3.3]heptan-6-yl]-6-methoxy-pyridine-3-carboxamide]
IC50 (HBeAg): 2.86 µM | IC50 (HBsAg): 4.74 µM | CC50 at 144 h [1]: > 100 µM

O=C(CC1CS(=O)(=O)C1)NC1CC2(C1)CN(c1nc3cc(Cl)ccc3o1)C2 (stereo not drawn) [Example 35, N-[2-(5-chloro-1,3-benzoxazol-2-yl)-2-azaspiro[3.3]heptan-6-yl]-2-(1,1-dioxothietan-3-yl)acetamide]
IC50 (HBeAg): 2.22 µM | IC50 (HBsAg): 2.36 µM | CC50 at 144 h [1]: > 100 µM

CC(C)C[S+]([O-])c1ccc(C(=O)NC2CC3(C2)CN(c2nc4cc(Cl)ccc4o2)C3)o1 (stereo not drawn) [Example 62, N-[2-(5-chloro-1,3-benzoxazol-2-yl)-2-azaspiro[3.3]heptan-6-yl]-5-isobutylsulfinyl-furan-2-carboxamide]
IC50 (HBeAg): 0.393 µM | IC50 (HBsAg): 0.449 µM | CC50 at 144 h [1]: 77.4 µM

O=C(NC1CC2(C1)CN(c1nc3cc(Cl)ccc3o1)C2)c1ccc(C(F)(F)F)o1 [Example 42, N-[2-(5-chloro-1,3-benzoxazol-2-yl)-2-azaspiro[3.3]heptan-6-yl]-5-(trifluoromethyl)furan-2-carboxamide]
IC50 (HBeAg): 4.67 µM | IC50 (HBsAg): 5.66 µM | CC50 at 144 h [1]: > 100 µM

N=S(=O)(c1ccc(C(=O)NC2CCC3(CC2)CCN(c2nc4cc(Cl)ccc4o2)CC3)o1)C1CC1 (stereo not drawn) [Example 120, N-[3-(5-chloro-1,3-benzoxazol-2-yl)-3-azaspiro[5.5]undecan-9-yl]-5-(cyclopropylsulfonimidoyl)furan-2-carboxamide]
IC50 (HBeAg): 1.43 µM | IC50 (HBsAg): 1.55 µM | CC50 at 144 h [1]: 66.6 µM

CC(C)(C)C(=O)NC1CCC2(CC1)CCN(c1nc3cc(Cl)ccc3o1)CC2 [Example 78, N-[3-(5-chloro-1,3-benzoxazol-2-yl)-3-azaspiro[5.5]undecan-9-yl]-2,2-dimethyl-propanamide]
IC50 (HBeAg): 1.2 µM | IC50 (HBsAg): 1.47 µM | CC50 at 144 h [1]: 57.9 µM

O=C(NC1CCC2(CC1)CCN(c1nc3cc(Cl)ccc3o1)CC2)c1ccc(S(=O)(=O)C2CC2)o1 [Example 122, N-[3-(5-chloro-1,3-benzoxazol-2-yl)-3-azaspiro[5.5]undecan-9-yl]-5-cyclopropylsulfonyl-furan-2-carboxamide]
IC50 (HBeAg): 0.473 µM | IC50 (HBsAg): 0.384 µM | CC50 at 144 h [1]: > 100 µM

CC[S+]([O-])c1ccc(C(=O)NC2CCC3(CC2)CCN(c2nc4cc(Cl)ccc4o2)CC3)o1 (stereo not drawn) [Example 103, N-[3-(5-chloro-1,3-benzoxazol-2-yl)-3-azaspiro[5.5]undecan-9-yl]-5-ethylsulfinyl-furan-2-carboxamide]
IC50 (HBeAg): 1.85 µM | IC50 (HBsAg): 1.35 µM | CC50 at 144 h [1]: 72.7 µM

CS(=O)(=O)c1ccc(C(=O)NC2CC3(C2)CN(c2nc4cc(Cl)ccc4o2)C3)o1 [Example 56, N-[2-(5-chloro-1,3-benzoxazol-2-yl)-2-azaspiro[3.3]heptan-6-yl]-5-methylsulfonyl-furan-2-carboxamide]
IC50 (HBeAg): 0.996 µM | IC50 (HBsAg): 1.22 µM | CC50 at 144 h [1]: > 100 µM

C[S+]([O-])c1ccc(C(=O)NC2CC3(C2)CN(c2nc4cc(Cl)ccc4o2)C3)o1 (stereo not drawn) [Example 64, N-[2-(5-chloro-1,3-benzoxazol-2-yl)-2-azaspiro[3.3]heptan-6-yl]-5-methylsulfinyl-furan-2-carboxamide]
IC50 (HBeAg): 1.54 µM | IC50 (HBsAg): 2.52 µM | CC50 at 144 h [1]: > 100 µM

O=C(NC1CCC2(CC1)CCN(c1nc3cc(Cl)ccc3o1)CC2)C1CCS(=O)(=O)C1 (stereo not drawn) [Example 90, N-[3-(5-chloro-1,3-benzoxazol-2-yl)-3-azaspiro[5.5]undecan-9-yl]-1,1-dioxo-thiolane-3-carboxamide]
IC50 (HBeAg): 1.08 µM | IC50 (HBsAg): 1.35 µM | CC50 at 144 h [1]: 73.9 µM

O=C(NC1CCC2(CC1)CCN(c1nc3ccc(Cl)cc3o1)CC2)C1CCS(=O)(=O)C1 (stereo not drawn) [Example 94, N-[3-(6-chloro-1,3-benzoxazol-2-yl)-3-azaspiro[5.5]undecan-9-yl]-1,1-dioxo-thiolane-3-carboxamide]
IC50 (HBeAg): 1.4 µM | IC50 (HBsAg): 1.73 µM | CC50 at 144 h [1]: 90.6 µM

CS(=O)(=O)c1cccc(C(=O)NCC2CCN(c3nc4cc(Cl)ccc4o3)CC2)c1 [Example 4, N-[[1-(5-chloro-1,3-benzoxazol-2-yl)-4-piperidyl]methyl]-3-methylsulfonyl-benzamide]
IC50 (HBeAg): 5.74 µM | IC50 (HBsAg): 6.28 µM | CC50 at 144 h [1]: > 10 µM

O=C(NCC1CCN(c2nc3cc(Cl)ccc3o2)C1)c1ccnc(S(=O)(=O)C2CC2)c1 (stereo not drawn) [Example 11, N-[[1-(5-chloro-1,3-benzoxazol-2-yl)pyrrolidin-3-yl]methyl]-2-cyclopropylsulfonyl-pyridine-4-carboxamide]
IC50 (HBeAg): 7.85 µM | IC50 (HBsAg): 9.14 µM | CC50 at 144 h [1]: > 10 µM

CS(=N)(=O)c1ccc(C(=O)NC2CC3(C2)CN(c2nc4cc(Cl)ccc4o2)C3)o1 (stereo not drawn) [Example 40, N-[2-(5-chloro-1,3-benzoxazol-2-yl)-2-azaspiro[3.3]heptan-6-yl]-5-(methylsulfonimidoyl)furan-2-carboxamide]
IC50 (HBeAg): 4.78 µM | IC50 (HBsAg): 6.13 µM | CC50 at 144 h [1]: > 100 µM

O=C(NC1CC2(C1)CN(c1nc3cc(Cl)ccc3o1)C2)c1ccc(S(=O)(=O)NC2CC(F)(F)C2)o1 [Example 60, N-[2-(5-chloro-1,3-benzoxazol-2-yl)-2-azaspiro[3.3]heptan-6-yl]-5-[(3,3-difluorocyclobutyl)sulfamoyl]furan-2-carboxamide]
IC50 (HBeAg): 2.55 µM | IC50 (HBsAg): 2.52 µM | CC50 at 144 h [1]: > 10 µM

CS(=O)(=O)c1cc(C(=O)NCC2CCN(c3nc4cc(Cl)ccc4o3)CC2)ccn1 [Example 5, N-[[1-(5-chloro-1,3-benzoxazol-2-yl)-4-piperidyl]methyl]-2-methylsulfonyl-pyridine-4-carboxamide]
IC50 (HBeAg): 4.93 µM | IC50 (HBsAg): 4.68 µM | CC50 at 144 h [1]: > 10 µM

O=C(NC1CC2(C1)CN(c1nc3cc(Cl)ccc3o1)C2)C1CCS(=O)(=O)C1 (stereo not drawn) [Example 26, N-[2-(5-chloro-1,3-benzoxazol-2-yl)-2-azaspiro[3.3]heptan-6-yl]-1,1-dioxo-thiolane-3-carboxamide]
IC50 (HBeAg): 4.65 µM | IC50 (HBsAg): 8.76 µM | CC50 at 144 h [1]: > 100 µM

O=C(NC1CCC2(CC1)CCN(c1nc3cc(Cl)ccc3o1)CC2)c1ccnc(S(=O)(=O)C2CC2)c1 [Example 118, N-[3-(5-chloro-1,3-benzoxazol-2-yl)-3-azaspiro[5.5]undecan-9-yl]-2-cyclopropylsulfonyl-pyridine-4-carboxamide]
IC50 (HBeAg): 2.36 µM | IC50 (HBsAg): 2.37 µM | CC50 at 144 h [1]: > 10 µM

Reference: patent publication US20230416238A1, “N-[(1,3-BENZOXAZOL-2-YL)-HETEROCYCLE]AMIDE DERIVATIVES FOR THE TREATMENT AND PROPHYLAXIS OF HEPATITIS B VIRUS INFECTION” (Hoffmann-La Roche Inc., priority 2020, published 2023)
